Reference: US20240300945A1, “CLY SERIES COMPOUND, PREPARATION METHOD THEREFOR AND USE THEREOF IN PREPARATION OF DRUGS” (NANJING WELLBEST PHARMACEUTICAL CO., LTD, priority 2021, published 2024)
Marks after values point to notes of the source that are not given here.

Tests used:
[1] = Pharmacokinetic properties of rats (bioavailability); format: in vivo; settings: rat, po; male SD rats; intravenous 1 mg/kg, intragastric 5 mg/kg; plasma LC/MS/MS
Experimental: Male SD rats were randomly assigned to each group, 12 rats in each compound group, and then randomly divided into two groups. Six rats were administered intravenously (1 mg/kg), and blood was collected and plasma was separated respectively at 0.0833, 0.25, 0.5, 1, 2, 4, 6, 8, and 24 hours after administration. The other six rats were administered intragastrically (5 mg/kg), and blood was collected and plasma was separated respectively at 0.25, 0.5, 1, 2, 4, 6, 8, and 24 hours after administration. The concentration of each compound in plasma was determined by LC/MS/MS method, and the relevant pharmacokinetic parameters were calculated by using the software Phoenix WinNonlin 6.2.1, the bioavailability in rats was calculated, and the pharmacokinetic properties of each compound were evaluated.

rabbit ear acne model [2] = assay: Rabbit ear acne model: macroscopic observation and histological grading; format: in vivo, New Zealand rabbits; settings: for number of rabbits with acne histological grading 2+: Grade 2; for number of rabbits with acne histological grading 2+ / number of rabbits with acne histological grading — / number of rabbits with acne histological grading 1+ / number of rabbits with acne histological grading 3+: right ear, 10 per group; for number of rabbits with acne histological grading —: Level 0, without acne; for number of rabbits with acne histological grading 1+: Level 1; for number of rabbits with acne histological grading 3+: Level 3
From the text: (1) Preparation method of treatment cream: The excipient matrix components included methyl silicone oil (15%), stearic acid (6%), white vaseline (5%), liquid paraffin (5%), octadecanol (5%), glycerin (20%), alkyl aryl polyglycol ether (1%), fatty alcohol polyoxyethylene ether (1%), […] (1%), ethyl paraben (0.1%), distilled water (about 31-55%), and mixed with appropriate amount of CLY series compounds to form a mixed emulsion. The emulsion matrix used in this embodiment refers to the matrix component after the active ingredient was removed from the emulsion.
(2) Positive therapeutic drug: 0.1% adapalene gel (Trade name: Differin, produced by Laboratoires Galderma, France).
(§1) New Zealand rabbits were, according to weights, randomly divided into the model control group (applied cream matrix), positive treatment group (applied Differin on the skin), CLY-1 external treatment group (0.25% CLY-1 cream on the skin), CLY-2 external treatment group (0.25% CLY-2 cream on the skin), CLY-3 external treatment group (0.25% CLY-3 cream on the skin), CLY-4 external treatment group (0.25% CLY-4 cream on the skin) CLY-8 external treatment group (0.25% CLY-8 cream on the skin), CLY-9 external treatment group (0.25% CLY-9 cream on the skin), CLY-11 external treatment group (0.25% CLY-11 cream on the skin), CLY-19 external treatment group (0.25% CLY-19 cream on the skin), CLY-36 external treatment group (0.25% CLY-36 cream on the skin); CLY-1 intravenous injection group (1 mg/kg·d), CLY-2 intravenous injection group (1 mg/kg·d), CLY-3 intravenous injection group (1 mg/kg·d), CLY-4 intravenous injection group (1 mg/kg·d), CLY-8 intravenous injection group (1 mg/kg·d), CLY-9 intravenous injection group (1 mg/kg·d), CLY-11 intravenous injection group (1 mg/kg·d), CLY-19 intravenous injection group (1 mg/kg·d), and CLY-36 intravenous injection group (1 mg/kg·d), with 10 in each group. Took the inner side of the rabbit's right ear for depilation treatment as the observation area, and the inner side of the left ear of all rabbits as their own negative control, and applied 95% alcohol. The inner side of the right ear of the model group and the treatment group were both coated with 2% coal tar (Alfa Aesar China, which used 95% alcohol to prepare 2% coal tar solution), and evenly applied the sterile cotton swab to the opening of the ear duct on the inner side of the rabbit's ear within the range of about 2 cm×2 cm, once a day, 0.5 mL each time, and wiped the previous application site with warm water for 14 consecutive days to establish the acne micro-pigmentation model. Visually observed the changes of local skin, including ear thickness, hardness, roughness, and whether there was a black angle plug at the hair follicle mouth. 18 hours after the last application, the sample was sacrificed and skin was taken. The skin tissue was taken from the application site by using a 5 mm punch, fixed with 10% formaldehyde, embedded in paraffin, and stained with HE. The histopathological observation and analysis were carried out.
The histological grading criteria of the acne model: 3 grades according to histological grade. […] The tight keratin embolism in the hair follicles causes severe expansion of the hair follicles, obvious hyperplasia of the sebaceous duct epithelium, skin bulges and scars, and some sebaceous glands degenerate “3±”.
(§2) SPSS16 software was used for statistical analysis. The paired t-test was used for the left and right self-contrast, and the t-test was used for the comparison between the groups, P<0.05 was statistically significant.

rabbit ear acne model [3] = assay: Rabbit ear acne model: epidermal thickness, hair follicle area, sebaceous gland diameter; format: in vivo, New Zealand rabbits; settings: rabbit right ear
From the text: as §1
The histopathological changes were observed under the microscope, and the thickness of five different epidermises on a slice was measured with the Biomias99 image analysis system, and the average value was calculated; Detected the area of the two hair follicles and the diameter of the four sebaceous glands with the same position and the most complete structure in the four sections, calculated their average values, and then subtracted the data of the left and right external auditory canal of the rabbits in each group to obtain the difference in the thickness of the left and right ear epidermis, the difference in the area of the hair follicles and the difference in the diameter of the sebaceous glands.
as §2

[4] = external use (0.25% CLY cream; positive: Differin)
[5] = intravenous injection 1 mg/kg·d

Work on `CN1CCC[C@@H](N(C(=O)c2ccc(-c3ccccc3)cc2)c2ncccc2Cl)C1` [CLY-32] yielded a bioavailability [1] of 58.6%.

Work on `Nc1ccccc1-c1ccc(C(=O)N(c2ncccc2Cl)[C@@H]2CCNC2)cc1` [CLY-28] yielded a bioavailability [1] of 42.6%.

In the case of `O=C(c1ccccc1-c1nnn[nH]1)N(c1ncccc1Cl)[C@@H]1CCCNC1` [CLY-21], the bioavailability [1] is reported as 49.6%.

In the case of `O=C(c1ccc(-n2nnc3cccnc32)cc1)N(c1ncccc1Cl)[C@@H]1CCCN1` [CLY-9], the “number of rabbits with acne histological grading 2+” value (rabbit ear acne model [2]; [4]) is reported as 1, the “number of rabbits with acne histological grading 2+” value (rabbit ear acne model [2]; [5]) is reported as 0 and the “number of rabbits with acne histological grading —” value (rabbit ear acne model [2]; [4]) is reported as 5. The “number of rabbits with acne histological grading —” value (rabbit ear acne model [2]; [5]) was 7, the “number of rabbits with acne histological grading 1+” value (rabbit ear acne model [2]; [4]) was 4 and the “number of rabbits with acne histological grading 1+” value (rabbit ear acne model [2]; [5]) was 3. The “number of rabbits with acne histological grading 3+” value (rabbit ear acne model [2]; [4]) was 0, the “number of rabbits with acne histological grading 3+” value (rabbit ear acne model [2]; [5]) was 0 and the epidermal thickness (rabbit ear acne model [3]; [4]) was 0.2389 ± 0.0189 mm. For the same compound, the hair follicle area (rabbit ear acne model [3]; [4]) was 0.2834 ± 0.0981* mm^2, the sebaceous gland diameter (rabbit ear acne model [3]; [4]) was 0.0715 ± 0.0412 mm and the epidermal thickness (rabbit ear acne model [3]; [5]) was 0.2126 ± 0.0167 mm. For the same compound, the hair follicle area (rabbit ear acne model [3]; [5]) was 0.2327 ± 0.0865* mm^2 and the sebaceous gland diameter (rabbit ear acne model [3]; [5]) was 0.0614 ± 0.0396 mm.

Compound `O=C(c1ccc(-c2cccc(-c3nnn[nH]3)c2)cc1)N(c1ncccc1Cl)[C@@H]1CCNC1` [CLY-18] has a bioavailability [1] of 46.9%.

`O=C(c1ccccc1Cl)N(c1ncccc1Cl)[C@@H]1CCCNC1` [CLY-37] showed a bioavailability [1] of 56.5%.

With `COC1CCC[C@@H](N(C(=O)c2cccc(-c3nnn[nH]3)c2)c2ncccc2Cl)C1` (some centres unmarked) [CLY-17] the bioavailability [1] was 52.5%.

`O=C(c1ccc(-c2ccc(Cl)cc2)cc1)N(c1ncccc1Cl)[C@@H]1CCCNC1` [CLY-26] showed a bioavailability [1] of 48.5%.

In the case of `COc1ccc(-c2ccc3cc(C(=O)O)ccc3c2)cc1C12CC3CC(CC(C3)C1)C2` [Positive treatment group, adapalene, reference compound], the “number of rabbits with acne histological grading 2+” value (rabbit ear acne model [2]; [4]) is reported as 3, the “number of rabbits with acne histological grading —” value (rabbit ear acne model [2]; [4]) is reported as 5 and the “number of rabbits with acne histological grading 1+” value (rabbit ear acne model [2]; [4]) is reported as 2. The “number of rabbits with acne histological grading 3+” value (rabbit ear acne model [2]; [4]) was 0, the “macroscopic observation of right ear” value (rabbit ear acne model [2]; after 14 days of coal tar, external treatment) was “slightly red, with a little desquamation and a small amount of acne” and the epidermal thickness (rabbit ear acne model [3]; [4]) was 0.2389 ± 0.0176 mm. For the same compound, the hair follicle area (rabbit ear acne model [3]; [4]) was 0.2789 ± 0.0926* mm^2 and the sebaceous gland diameter (rabbit ear acne model [3]; [4]) was 0.0723 ± 0.0387 mm.

Compound `Cc1ccccc1-c1ccc(C(=O)N(c2ncccc2Cl)[C@@H]2CCNC2)cc1` [CLY-30] has a bioavailability [1] of 46.2%.

`CC(C)C(=O)OC(C)n1nnc(-c2c(-c3ccc(C(=O)N(c4ncccc4Cl)C4CCNC4)cc3)cnn2C)n1` [CLY-44, 1-(5-(4-(4-((3-chloropyridin-2-yl) (((R)-pyrrolidin-3-yl)carbamoyl)phenyl)-1-methyl-1H-pyrazol-5-yl)-2H-tetrazol-2-yl)ethyl isobutyrate] gave a bioavailability [1] of 50.6%.

`CCN1CCC[C@@H](N(C(=O)c2ccc(-c3ccc(Cl)cc3)cc2)c2ncccc2Cl)C1` [CLY-35] showed a bioavailability [1] of 62.2%.
